The record followed here is US10556888B2, “Pyrazole compounds or salts thereof, preparation methods therefor, herbicidal compositions and use thereof” (QINGDAO KINGAGROOT CHEMICAL COMPOUNDS CO., LTD, priority 2015, dated 2020).

Data set [1] concerns Monocotyledonous and dicotyledonous weed. In words: Post-emergence test experiment, weed control effect (Table 2). The class given is in vivo. More on the design: key to weed control effect, Setaria viridis (level) / weed control effect, Rorippa indica (level) / weed control effect, Abutilon theophrasti (level) / weed control effect, Echinochloa crus-galli (level) / weed control effect, Digitaria sanguinalis (level): Level 10: completely dead; Level 9: above 90% growth inhibition rate; Level 8: above 80% growth inhibition rate; Level 7: above 70% growth inhibition rate; Level 6: above 60% growth inhibition rate; Level 5: above 50% growth inhibition rate; Level 4: above 30% growth inhibition rate; Level 3: above 20% growth inhibition rate; Level 2: above 10% growth inhibition rate; Level 1: above 1-10% growth inhibition rate; Level 0: no effect. The conditions noted are these: 3 weeks after spraying, greenhouse. Put shortly:
(§1)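 Compounds, dissolved in acetone, mixed with Tween 80 and diluted in water, were sprayed post-emergence onto greenhouse-grown weeds and crops at the 2-3 leaf stage (2-3 weeks post-sowing). Plants then grown 3 more weeks in the greenhouse before evaluation.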

For data set [2], the system named is main crop (wheat, corn, rice, soybean, cotton, oilseed, millet and sorghum). In words: Post-emergence test experiment, main crops (Table 2). It is filed as in vivo. More on the design: key: Level 10: completely dead; Level 9: above 90% growth inhibition rate; Level 8: above 80% growth inhibition rate; Level 7: above 70% growth inhibition rate; Level 6: above 60% growth inhibition rate; Level 5: above 50% growth inhibition rate; Level 4: above 30% growth inhibition rate; Level 3: above 20% growth inhibition rate; Level 2: above 10% growth inhibition rate; Level 1: above 1-10% growth inhibition rate; Level 0: no effect. The conditions noted are these: 3 weeks after spraying, greenhouse. The method, boiled down: as §1

Regarding `CCOc1c(C(=O)Oc2c(C(=O)c3ccc(S(C)(=O)=O)c(Cn4cc(C)cn4)c3C)c(C3CC3)nn2C)cnn1C` [Compound 81], in data set [1] (120 g/ha), the “weed control effect, Abutilon theophrasti (level)” value was 6 (Level 6: above 60% growth inhibition rate); the “weed control effect, Bidens pilosa (level)” value is 6 (Level 6: above 60% growth inhibition rate); the “weed control effect, Digitaria sanguinalis (level)” value was 1 (Level 1: above 1-10% growth inhibition rate); the “weed control effect, Echinochloa crus-galli (level)” value is on record as 10. In addition, in data set [1] (120 g/ha), the “weed control effect, Rorippa indica (level)” value is listed as 4 (Level 4: above 30% growth inhibition rate) and the “weed control effect, Setaria viridis (level)” value is 3 (Level 3: above 20% growth inhibition rate). In addition, in data set [2] (120 g/ha), the “effect on crop, corn (level)” value was determined as 0; the “effect on crop, rice (level)” value amounted to 0; the “effect on crop, wheat (level)” value was 0.
Consider `CCOc1c(C(=O)Oc2c(C(=O)c3ccc(S(C)(=O)=O)c(Cn4cc(Cl)cn4)c3C)c(C)nn2CC)cnn1C` [Compound 82], for which, in data set [1] (120 g/ha), the “weed control effect, Abutilon theophrasti (level)” value was 6 (Level 6: above 60% growth inhibition rate); the “weed control effect, Bidens pilosa (level)” value is 6 (Level 6: above 60% growth inhibition rate); the “weed control effect, Digitaria sanguinalis (level)” value is 1 (Level 1: above 1-10% growth inhibition rate); the “weed control effect, Echinochloa crus-galli (level)” value was found to be 10. In data set [1] (120 g/ha), the “weed control effect, Rorippa indica (level)” value was 4 (Level 4: above 30% growth inhibition rate) and the “weed control effect, Setaria viridis (level)” value is given as 3 (Level 3: above 20% growth inhibition rate). In data set [2] (120 g/ha), the “effect on crop, corn (level)” value is 0; the “effect on crop, rice (level)” value was found to be 0; the “effect on crop, wheat (level)” value was determined as 0.
Take `CCn1nc(C2CC2)c(C(=O)c2ccc(S(C)(=O)=O)c(Cn3cc(Cl)cn3)c2C)c1OC(=O)c1cn(C)nc1C` [Compound 84]: in data set [1] (120 g/ha), the “weed control effect, Abutilon theophrasti (level)” value was 6 (Level 6: above 60% growth inhibition rate); the “weed control effect, Bidens pilosa (level)” value was 6 (Level 6: above 60% growth inhibition rate); the “weed control effect, Digitaria sanguinalis (level)” value was 1 (Level 1: above 1-10% growth inhibition rate); the “weed control effect, Echinochloa crus-galli (level)” value is 10. Besides, in data set [1] (120 g/ha), the “weed control effect, Rorippa indica (level)” value was 4 (Level 4: above 30% growth inhibition rate) and the “weed control effect, Setaria viridis (level)” value was 3 (Level 3: above 20% growth inhibition rate). In data set [2] (120 g/ha), the “effect on crop, corn (level)” value came to 0; the “effect on crop, rice (level)” value amounted to 0; the “effect on crop, wheat (level)” value is on record as 0.
As to `CCn1nc(C)c(C(=O)c2ccc(S(C)(=O)=O)c(COCC(F)(F)C(F)F)c2C)c1OC(=O)c1cnn(C)c1` [Compound 85], in data set [1] (30 g/ha), the “weed control effect, Abutilon theophrasti (level)” value is given as 6 (Level 6: above 60% growth inhibition rate); the “weed control effect, Bidens pilosa (level)” value was 7 (Level 7: above 70% growth inhibition rate); the “weed control effect, Digitaria sanguinalis (level)” value is 8 (Level 8: above 80% growth inhibition rate); the “weed control effect, Echinochloa crus-galli (level)” value is on record as 9 (Level 9: above 90% growth inhibition rate). In data set [1] (30 g/ha), the “weed control effect, Rorippa indica (level)” value turned out to be 10 and the “weed control effect, Setaria viridis (level)” value is on record as 8 (Level 8: above 80% growth inhibition rate). In data set [2] (30 g/ha), the “effect on crop, corn (level)” value is 0; the “effect on crop, rice (level)” value is reported as 3 (Level 3: above 20% growth inhibition rate); the “effect on crop, wheat (level)” value is 0.
For the compound `CCOCCOCc1c(S(C)(=O)=O)ccc(C(=O)c2c(C3CC3)nn(CC)c2OC(=O)c2cnn(C)c2OCC)c1C` [Compound 86], in data set [1] (30 g/ha), the “weed control effect, Abutilon theophrasti (level)” value is on record as 6 (Level 6: above 60% growth inhibition rate); the “weed control effect, Bidens pilosa (level)” value is reported as 7 (Level 7: above 70% growth inhibition rate); the “weed control effect, Digitaria sanguinalis (level)” value is 8 (Level 8: above 80% growth inhibition rate); the “weed control effect, Echinochloa crus-galli (level)” value is reported as 8 (Level 8: above 80% growth inhibition rate). Moreover, in data set [1] (30 g/ha), the “weed control effect, Rorippa indica (level)” value is given as 10 and the “weed control effect, Setaria viridis (level)” value is given as 8 (Level 8: above 80% growth inhibition rate). Moreover, in data set [2] (30 g/ha), the “effect on crop, corn (level)” value was determined as 0; the “effect on crop, rice (level)” value was 3 (Level 3: above 20% growth inhibition rate); the “effect on crop, wheat (level)” value is 0.
As for `CCn1ncc(C(=O)c2ccc(S(C)(=O)=O)c(Cn3cc(C)cn3)c2C)c1OC(=O)c1cnn(C)c1` [Compound 87], in data set [1] (120 g/ha), the “weed control effect, Abutilon theophrasti (level)” value is given as 6 (Level 6: above 60% growth inhibition rate); the “weed control effect, Bidens pilosa (level)” value is on record as 6 (Level 6: above 60% growth inhibition rate); the “weed control effect, Digitaria sanguinalis (level)” value was 1 (Level 1: above 1-10% growth inhibition rate); the “weed control effect, Echinochloa crus-galli (level)” value is 10. Besides, in data set [1] (120 g/ha), the “weed control effect, Rorippa indica (level)” value is reported as 4 (Level 4: above 30% growth inhibition rate) and the “weed control effect, Setaria viridis (level)” value is 3 (Level 3: above 20% growth inhibition rate). For the same compound, in data set [2] (120 g/ha), the “effect on crop, corn (level)” value stood at 0; the “effect on crop, rice (level)” value is 0; the “effect on crop, wheat (level)” value is on record as 0.
Turning to `CC=CCOCc1c(S(C)(=O)=O)ccc(C(=O)c2cnn(CC)c2OC(=O)c2cnn(C)c2)c1Cl` [Compound 88], in data set [1] (30 g/ha), the “weed control effect, Abutilon theophrasti (level)” value was 6 (Level 6: above 60% growth inhibition rate); the “weed control effect, Bidens pilosa (level)” value was 7 (Level 7: above 70% growth inhibition rate); the “weed control effect, Digitaria sanguinalis (level)” value is recorded as 8 (Level 8: above 80% growth inhibition rate); the “weed control effect, Echinochloa crus-galli (level)” value is recorded as 7 (Level 7: above 70% growth inhibition rate). Moreover, in data set [1] (30 g/ha), the “weed control effect, Rorippa indica (level)” value amounted to 10 and the “weed control effect, Setaria viridis (level)” value was 8 (Level 8: above 80% growth inhibition rate). In addition, in data set [2] (30 g/ha), the “effect on crop, corn (level)” value came out at 0; the “effect on crop, rice (level)” value is reported as 3 (Level 3: above 20% growth inhibition rate); the “effect on crop, wheat (level)” value stood at 0.
`CCn1nc(C)c(C(=O)c2ccc(S(C)(=O)=O)c(Cn3cccn3)c2Cl)c1OC(=O)c1cn(C)nc1C` [Compound 89]: in data set [1] (30 g/ha), the “weed control effect, Abutilon theophrasti (level)” value is 7 (Level 7: above 70% growth inhibition rate); the “weed control effect, Bidens pilosa (level)” value is 7 (Level 7: above 70% growth inhibition rate); the “weed control effect, Digitaria sanguinalis (level)” value is reported as 7 (Level 7: above 70% growth inhibition rate); the “weed control effect, Echinochloa crus-galli (level)” value worked out at 10. In data set [1] (30 g/ha), the “weed control effect, Rorippa indica (level)” value amounted to 10 and the “weed control effect, Setaria viridis (level)” value was 8 (Level 8: above 80% growth inhibition rate). In data set [2] (30 g/ha), the “effect on crop, corn (level)” value was 1 (Level 1: above 1-10% growth inhibition rate); the “effect on crop, rice (level)” value is given as 1 (Level 1: above 1-10% growth inhibition rate); the “effect on crop, wheat (level)” value is 0.
`CCn1nc(C2CC2)c(C(=O)c2ccc(S(C)(=O)=O)c(Cn3cc(C)cn3)c2Cl)c1OC(=O)c1cnn(C)c1` [Compound 91]: in data set [1] (120 g/ha), the “weed control effect, Abutilon theophrasti (level)” value is given as 6 (Level 6: above 60% growth inhibition rate); the “weed control effect, Bidens pilosa (level)” value is reported as 6 (Level 6: above 60% growth inhibition rate); the “weed control effect, Digitaria sanguinalis (level)” value is 1 (Level 1: above 1-10% growth inhibition rate); the “weed control effect, Echinochloa crus-galli (level)” value came out at 10. Further, in data set [1] (120 g/ha), the “weed control effect, Rorippa indica (level)” value was 4 (Level 4: above 30% growth inhibition rate) and the “weed control effect, Setaria viridis (level)” value is 3 (Level 3: above 20% growth inhibition rate). In data set [2] (120 g/ha), the “effect on crop, corn (level)” value stood at 0; the “effect on crop, rice (level)” value was found to be 0; the “effect on crop, wheat (level)” value is 0.
On to `CCOc1c(C(=O)Oc2c(C(=O)c3ccc(S(C)(=O)=O)c(COC)c3Cl)c(C)nn2CC)cnn1C` [Compound 92], for which, in data set [1] (30 g/ha), the “weed control effect, Abutilon theophrasti (level)” value is reported as 5 (Level 5: above 50% growth inhibition rate); the “weed control effect, Bidens pilosa (level)” value is recorded as 7 (Level 7: above 70% growth inhibition rate); the “weed control effect, Digitaria sanguinalis (level)” value is 8 (Level 8: above 80% growth inhibition rate); the “weed control effect, Echinochloa crus-galli (level)” value amounted to 10. Moreover, in data set [1] (30 g/ha), the “weed control effect, Rorippa indica (level)” value came out at 10 and the “weed control effect, Setaria viridis (level)” value worked out at 10. In data set [2] (30 g/ha), the “effect on crop, corn (level)” value is on record as 1 (Level 1: above 1-10% growth inhibition rate); the “effect on crop, rice (level)” value is reported as 3 (Level 3: above 20% growth inhibition rate); the “effect on crop, wheat (level)” value stood at 0.
With `CCOc1c(C(=O)Oc2c(C(=O)c3ccc(S(C)(=O)=O)c(Cn4nc(C)cc4C)c3Cl)cnn2CC)cnn1C` [Compound 93], in data set [1] (120 g/ha), the “weed control effect, Abutilon theophrasti (level)” value is 6 (Level 6: above 60% growth inhibition rate); the “weed control effect, Bidens pilosa (level)” value is reported as 6 (Level 6: above 60% growth inhibition rate); the “weed control effect, Digitaria sanguinalis (level)” value is 1 (Level 1: above 1-10% growth inhibition rate); the “weed control effect, Echinochloa crus-galli (level)” value is listed as 10. Further, in data set [1] (120 g/ha), the “weed control effect, Rorippa indica (level)” value is reported as 4 (Level 4: above 30% growth inhibition rate) and the “weed control effect, Setaria viridis (level)” value was 3 (Level 3: above 20% growth inhibition rate). Further, in data set [2] (120 g/ha), the “effect on crop, corn (level)” value stood at 0; the “effect on crop, rice (level)” value worked out at 0; the “effect on crop, wheat (level)” value stood at 0.
